Consider one compound from DBAASP.

Each structure is given as a SMILES string. Converted amounts (≈) assume the structure as drawn. Where only a bound is given, the exact number is not on record here.

Holding throughout (assay): ≥ marks a high value that may be exact or a test limit, other limits are often not marked, values filed in µg/mL are converted to µM
In experiment [1] the test system is Bacillus subtilis ATCC 11774.
Experiment [2] deals with Enterococcus faecalis FA1.
Experiment [3] deals with Escherichia coli ATCC 12014.
The subject of a further experiment is Escherichia coli C25.
Experiment [4] deals with Listeria monocytogenes ATCC 15313.
Experiment [5] concerns Porphyromonas gingivalis ATCC 33277.
The subject of experiment [6] is Pseudomonas aeruginosa ATCC 10145.
Experiment [7] relates to Salmonella enterica subsp. enterica serovar Typhimurium ATCC BAA-215.
The subject of experiment [8] is Staphylococcus aureus ATCC 25923.

In general, MIC refers to the smallest concentration in the dilution series that meets the test's criterion for growth inhibition. Low readings indicate a more susceptible organism, high ones a less susceptible organism. As to `CC[C@H](C)[C@H](NC(=O)CNC(=O)[C@H](CCCN=C(N)N)NC(=O)[C@H](Cc1ccc(O)cc1)NC(=O)[C@@H](NC(=O)[C@H](CCCN=C(N)N)NC(=O)[C@H](Cc1ccccc1)NC(=O)[C@H](Cc1c[nH]c2ccccc12)NC(=O)[C@@H](N)CCCCN)C(C)C)C(=O)N[C@@H](Cc1ccc(O)cc1)C(=O)N[C@@H](CCCN=C(N)N)C(=O)N[C@@H](CCCN=C(N)N)C(=O)N[C@@H](CCCN=C(N)N)C(N)=O` [KWFRVYRGIYRRR], the minimum inhibitory concentration (MIC) is at least 108 µM in [1]; at least 53.9 µM in [2]; 3.37 µM (≈ 6.25 µg/mL) in experiment [3]; 7.1 µM (≈ 13.2 µg/mL) against Escherichia coli C25; 6.73 µM (≈ 12.5 µg/mL) in experiment [4]; 1.68 µM (≈ 3.12 µg/mL) in experiment [5]. The figures for the minimum inhibitory concentration (MIC) in experiment [6], in [7] and in experiment [8] were 6.73 µM (≈ 12.5 µg/mL), 6.73 µM (≈ 12.5 µg/mL) and 14 µM (≈ 26 µg/mL), respectively.
